The text below walks through data of article PMC11783601, “Analogue-Sensitive Inhibition of Histone Demethylases Uncovers Member-Specific Function in Ribosomal Protein Synthesis” (Journal of the American Chemical Society, 2025).

Assay type in all cases: biochemical
One assay has as its target T1, KDM8 (JMJD5) (Homo sapiens, UniProt Q8N371).
T1 construct: we recombinantly expressed the catalytic domains of 12 wild type dioxygenases; made in house
Kind of assay: MALDI-TOF assay for JMJD5 arginine hydroxylation of peptide. Particulars: peptide substrate.

A further assay addresses T2, KDM4A-F185A (Homo sapiens, UniProt O75164, F185A).
T2 construct: human KDM4A-jmjC domain (catalytic domain of KDM4A); 6xHis (N); host or cells: E. coli BL21 (DE3)
T2 sequence (O75164 142-308 F185A limits assumed): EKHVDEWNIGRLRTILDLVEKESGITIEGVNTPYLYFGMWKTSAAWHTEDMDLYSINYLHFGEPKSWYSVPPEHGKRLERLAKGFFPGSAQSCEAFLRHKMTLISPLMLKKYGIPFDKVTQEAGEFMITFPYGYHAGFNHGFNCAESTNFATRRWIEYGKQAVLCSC
Kind of assay: MALDI-MS end-point demethylase assay on H3K9me3 peptide. As to conditions: H3K9me3 peptide, 200 µM 2OG, fixed concentration of NOG analogue. The source says: To develop an appropriate inhibitor, we selected N-oxalyl glycine (NOG, 2) scaffold because of its structural similarity with 2OG and the ability to inhibit 2OG-utilizing enzymes including KDMs (Figure 1C).[29]−[31] Substituting −CH2– at C3 of 2OG with −NH– in NOG prevents its oxidative decarboxylation by KDMs, making the inhibitor cofactor-competitive. […] We synthesized a panel of eight NOG analogues (3–10), derived from L-amino acids, carrying varied steric substituents at C4, with the reasoning that a bulky substituent at C4 would selectively fit into the expanded pocket of F185A over wild type KDM4A (Figures 2B and S1–S6, Schemes S1 and S2). The inhibitory effect of each compound was determined based on the extent of enzyme-catalyzed demethylation of a canonical peptide substrate corresponding to the N-terminus of histone 3 carrying trimethylated lysine at position 9 (H3K9me3). […] Such orthogonal inhibition of the engineered demethylase constitutes a powerful chemical probe to study the functions of a specific member of an enzyme family without issues of off-target activity. […]
(§1) assay (Biorad) kit with BSA concentrations as a standard. […]
8. Demethylase activity of the wild type and mutant KDM4 proteins on peptide substrate To monitor enzymatic activity, a demethylase activity assay was optimized and then observed through MALDI-TOF.7 Each histone demethylase assay sample included either wild type or mutant enzyme (10µM KDM4A, 7.5µM KDM4C, 10µM KDM4D, or 1µM KDM4E), 10 µM peptide, 200 µM 2OG, 50 mM Tris pH 8, […], 0-200µM NOG analogue, and 2 mM L-ascorbic acid with a total assay volume of 10 µL. Fe(II) supplement and L-ascorbic acid […]
Lastly, the 2OG and peptide were […]
positive mode and analyzed on Bruker FlexAnalysis software. The percent demethylated peptide […]
(§2) the multiple demethylation events on the peptide. […]
varying concentrations (0-10 µM). […] The fluorescence intensity was measured with excitation = 340 nm and emission = 490 nm on a TECAN Infinite M1000Pro. […]
The set up and analysis for IC50 of L-Leu NOG against KDM4A F185A enzyme was similar to that described in the coupled fluorescence assay section, but adjusted to function as an end point assay. […]
and varying concentration of compounds (NOGs 6, 9 and 10) and a substrate cocktail (200 µM 2OG and 60 µM H3K9me3 peptide). Different concentrations of NOG 6 were measured at one time point ranging for 1-5 hours. For 9 and 10, the same set-up remained, but enzymatic activity was measured via MALDI-TOF analysis, and relative activity and inhibition was calculated for different NOG concentrations as described above. […]
and analyzed on Bruker FlexAnalysis software. The percent demethylated peptide was calculated by first multiplying the K27me1 peak by 2 and the K27me0 peak by 3 to account for the multiple

Another assay concerns the target T3, wild type KDM4A (Homo sapiens, UniProt O75164).
T3 construct: human KDM4A-jmjC domain (catalytic domain of KDM4A); 6xHis (N); host or cells: E. coli BL21 (DE3)
T3 sequence (O75164 142-308 limits assumed): T2 sequence (O75164 142-308 F185A limits assumed) with A44F
Described as above.
Excerpt: To develop an appropriate inhibitor, we selected N-oxalyl glycine (NOG, 2) scaffold because of its structural similarity with 2OG and the ability to inhibit 2OG-utilizing enzymes including KDMs (Figure 1C).[29]−[31] Substituting −CH2– at C3 of 2OG with −NH– in NOG prevents its oxidative decarboxylation by KDMs, making the inhibitor cofactor-competitive. […] We synthesized a panel of eight NOG analogues (3–10), derived from L-amino acids, carrying varied steric substituents at C4, with the reasoning that a bulky substituent at C4 would selectively fit into the expanded pocket of F185A over wild type KDM4A (Figures 2B and S1–S6, Schemes S1 and S2). The inhibitory effect of each compound was determined based on the extent of enzyme-catalyzed demethylation of a canonical peptide substrate corresponding to the N-terminus of histone 3 carrying trimethylated lysine at position 9 (H3K9me3). […] Such orthogonal inhibition of the engineered demethylase constitutes a powerful chemical probe to study the functions of a specific member of an enzyme family without issues of off-target activity.
as §1
8. […]
2 mM L-ascorbic acid with a total assay volume of 10 µL. Fe(II) supplement and L-ascorbic acid
Lastly, the 2OG and peptide were
positive mode and analyzed on Bruker FlexAnalysis software. The percent demethylated peptide
as §2

Each structure is given as a SMILES string. Changes are numbered by the printed parent chain. Entries after “also recorded” stand apart in the source; their conditions may differ.

T1 sequence (Q8N371 271-416 limits assumed): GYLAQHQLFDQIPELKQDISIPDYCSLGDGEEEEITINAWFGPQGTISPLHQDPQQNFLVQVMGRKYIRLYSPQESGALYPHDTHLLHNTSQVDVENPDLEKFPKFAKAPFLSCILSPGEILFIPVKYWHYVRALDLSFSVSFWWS

As to `CC(C)CC(NC(=O)C(=O)O)C(=O)O` (stereo not shown) [compound 6, N-oxalyl leucine], the “inhibition of JMJD5” value against KDM8 (JMJD5) is on record as “No inhibition”. Moreover, on KDM4A-F185A, the “inhibition of F185A mutant demethylase activity (MALDI-MS)” value is recorded as “complete inhibition”. The “inhibition of wild type KDM4A demethylase activity (MALDI-MS)” value against wild type KDM4A (H3K9me3 peptide, 200 µM 2OG, fixed concentration of NOG analogue) is given as “without affecting”. For the same compound, at wild type KDM4A (up to 500 μM), the “dose-dependent inhibition of wild type KDM4A” value is on record as “no inhibitory effect; also recorded: does not inhibit”.
